This is an account of results in patent publication US20220260574A1, “METHODS OF DETERMINING THERAPIES BASED ON SINGLE CELL CHARACTERIZATION OF CIRCULATING TUMOR CELLS (CTCS) IN METASTATIC DISEASE” (Epic Sciences, Inc., priority 2017, published 2022).

Like-named read-outs stand apart in the source and are kept apart here.

Assay [1] concerns mCRPC patients. The experiment in a line: Carboplatin therapy in mCRPC patients with high vs low pLST baseline CTCs (PSA response). The class given is in vivo, human.
Assay [2] relates to mCRPC patients. The assay is described as follows: Single CTC sequencing of a 2nd line post taxane patient treated with enzalutamide. The class given is in vivo, human. Conditions: 2nd line post taxane patient with lack of clonal diversity.
Description: Phlebotomy samples were obtained at a Decision Point in management: therapy was chosen by the treating physician. Standard of care collection from 221 mCRPC patients at decision points. Baseline blood draw prior to A, E or T. Followed by PSA, time on drug, radiographic progression free (rPFS) & overall survival (OS). 9225 CTCs identified and characterized phenotypically. 741 CTCs from 31 patients were studied by whole genome CNV for clonality and gene amplifications/deletions. Patients were ranked based on how heterogeneous or diverse the cells were at each decision point. […] After a CTC is phenotypically measured, the coverslip is removed and the individual CTC is aspirated and put into an individual tube. The CTCs are amplified and prepared for sequencing (FIG. 15). Following sequencing informatics were performed to assess clonality and amplification/deletions (FIG. 15). […] Each patient sample was analyzed separately. Single CTC genomic CNV plots were curated individually versus other CTCs in patient sample. Clonality was characterized based on large genomic variations and focal amplifications or deletion of known driver alterations in at least 2 CTCs, for example, two cells from same patient with or without a loss of chromosome 5q or two clones from a patient with and without AR amplification (FIG. 16).
In assay [3] the test system is mCRPC patients.
Where [4] appears, read: one 8th line mCRPC patient with 4.3% baseline CTCs as high pLST.
[5] abbreviates: one 10th line mCRPC patient with 96% baseline CTCs as high pLST.
Where [6] appears, read: patients without vs with the presence of cell type K.

For `N.N.O=C([O-])C1(C(=O)[O-])CCC1.[Pt+2]` [carboplatin], the “12 week PSA change” value with mCRPC patients [1] (setting [4]) is reported as “+2.1%”; in the assay on mCRPC patients [1] (setting [5]) it was −50.1%. Besides, the “response to carboplatin therapy” value with mCRPC patients [1] (setting [4]) is “did not respond”; with mCRPC patients [1] (setting [5]), “responded”.
Take `CNC(=O)c1ccc(N2C(=S)N(c3ccc(C#N)c(C(F)(F)F)c3)C(=O)C2(C)C)cc1F` [enzalutamide]: the response to therapy result with mCRPC patients [2] is “responded”. Also, in the assay on mCRPC patients [3] (all patients, Abi vs Enza), the “Time on therapy (Tx)” value is “similar” and the “overall survival (OS)” value is “similar”. Further, the “radiographic Progression Free Survival (rPFS)” value in the assay on mCRPC patients [3] (all patients, Enza vs Abi, p=0.025) was “significantly better”. Further, the “HR (hazards of death, overall survival), feature Therapy” value with mCRPC patients [3] (multivariate cox model, =0 if Abi, =1 if Enza, p 0.4167) stood at 0.6543. In addition, the “HR (hazards of death, overall survival), feature Cell Type K: Therapy Interaction” value in the assay on mCRPC patients [3] (multivariate cox model, =0 if not K+ and Enza, =1 if K+ and Enza, p 0.0306) stood at 5.2792. The “hazards of death, therapy favoured in multivariate cox proportional hazards model” value in the assay on mCRPC patients [3] (patients without the presence of cell type K) is “more favorable”. The OS result in the assay with mCRPC patients [3] (patients without the presence of cell type K, Enza vs Abi) is on record as “no difference”. Besides, in the assay with mCRPC patients [3] (patients without the presence of cell type K, Enza vs Abi, p=0.006), the rPFS entry is “significantly better”. Moreover, in the assay on mCRPC patients [3] (setting [6]), the OS result is given as “significant improvement”, the “Time on Tx” value was “significant improvement” and the rPFS result is recorded as “significant improvement”.
